# From article PMC9944867, “Mechanistic in vitro studies indicate that the clinical drug–drug interactions between protease inhibitors and rosuvastatin are driven by inhibition of intestinal BCRP and hepatic OATP1B1 with minimal contribution from OATP1B3, NTCP and OAT3” (Pharmacology Research & Perspectives, 2023)
# Where two headings read alike, the source gives them in different places. Marks after values point to notes of the source that are not given here.
# How the values were obtained:
# [1] = molecular target: T1, OATP1B1 (Homo sapiens, UniProt Q9Y6L6); test: OATP1B1 inhibition in transporter-expressing HEK293 cells, [3H]-estradiol 17β-D-glucuronide uptake (IC50 determination); details: human, HEK293 cells expressing OATP1B1 (with vector control cells), pH 7.4, probe [3H]-estradiol 17β-D-glucuronide (0.02 μM), IC50, determined values from different occasions (OATP1B1), OATP1B1-mediated transport of [3H]-estradiol 17β-D-glucuronide (0.02 μM), HEK293; single occasion
# T1 sequence (Q9Y6L6 1-691): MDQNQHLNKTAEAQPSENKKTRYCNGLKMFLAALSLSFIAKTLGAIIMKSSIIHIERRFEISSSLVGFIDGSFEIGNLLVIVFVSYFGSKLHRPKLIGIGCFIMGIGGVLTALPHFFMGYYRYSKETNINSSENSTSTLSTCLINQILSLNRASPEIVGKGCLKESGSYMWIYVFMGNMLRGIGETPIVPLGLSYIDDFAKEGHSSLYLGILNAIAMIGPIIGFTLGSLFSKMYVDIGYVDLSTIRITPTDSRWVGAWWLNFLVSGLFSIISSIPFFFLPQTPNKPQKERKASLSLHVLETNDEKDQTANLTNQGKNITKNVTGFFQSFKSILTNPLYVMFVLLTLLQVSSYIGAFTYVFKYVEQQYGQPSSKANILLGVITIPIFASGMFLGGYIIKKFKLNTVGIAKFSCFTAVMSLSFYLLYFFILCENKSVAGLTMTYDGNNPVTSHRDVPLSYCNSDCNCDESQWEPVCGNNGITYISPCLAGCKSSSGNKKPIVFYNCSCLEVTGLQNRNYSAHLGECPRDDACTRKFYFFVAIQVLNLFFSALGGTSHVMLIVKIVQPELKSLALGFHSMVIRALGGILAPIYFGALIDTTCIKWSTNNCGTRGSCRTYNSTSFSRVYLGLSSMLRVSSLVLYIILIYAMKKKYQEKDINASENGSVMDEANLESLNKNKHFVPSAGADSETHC
# Description: OATP1B1, OATP1B3, NTCP and vector control cell lines were cultured and subsequent transporter assays conducted as described above using the same transporter‐specific probe substrates and incubation times. For OATP1B1, the probe substrate was [^3H]‐estradiol 17β‐D‐glucuronide (0.02 μM) incubated for 2 min, with rifamycin SV (100 μM) as positive control inhibitor. For IC50 determinations, the only difference to the method performed above was that the 15‐min pre‐incubation step contained a range of six concentrations of protease inhibitor drug, and subsequent incubations were conducted with the same six concentration levels of drug rather than with a single concentration.
# [2] = molecular target: T2, BCRP (Homo sapiens, UniProt Q9UNQ0); details: probe substrate pheophorbide A; ref Weiss et al.[15]; cited from earlier work
# T2 sequence (Q9UNQ0 1-655): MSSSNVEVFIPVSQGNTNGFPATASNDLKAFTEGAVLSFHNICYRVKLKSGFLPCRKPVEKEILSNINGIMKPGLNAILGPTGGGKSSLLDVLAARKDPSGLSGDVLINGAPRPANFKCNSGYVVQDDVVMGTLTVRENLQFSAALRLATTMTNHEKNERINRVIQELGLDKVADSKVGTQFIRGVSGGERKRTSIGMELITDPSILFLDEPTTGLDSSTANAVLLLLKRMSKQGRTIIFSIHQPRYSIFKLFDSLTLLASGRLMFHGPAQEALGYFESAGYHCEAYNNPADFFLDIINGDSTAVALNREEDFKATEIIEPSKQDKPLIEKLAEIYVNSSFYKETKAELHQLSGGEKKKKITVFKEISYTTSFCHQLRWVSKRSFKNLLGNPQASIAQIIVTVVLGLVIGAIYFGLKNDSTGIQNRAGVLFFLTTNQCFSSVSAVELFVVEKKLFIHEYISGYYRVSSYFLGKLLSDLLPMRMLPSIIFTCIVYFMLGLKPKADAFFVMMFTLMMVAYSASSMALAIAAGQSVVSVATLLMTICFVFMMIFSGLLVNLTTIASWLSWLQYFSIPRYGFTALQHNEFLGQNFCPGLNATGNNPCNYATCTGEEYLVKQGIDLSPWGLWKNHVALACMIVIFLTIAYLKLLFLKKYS
# [3] = Pharmacokinetic parameters of protease inhibitors in clinical interaction studies with rosuvastatin; details: calculated, clinical dose of Table 5
# [4] = system: intestinal BCRP and hepatic OATP1B1, OATP1B3, NTCP; details: rosuvastatin; ref Elsby et al.[13]; cited from earlier work
# [5] = molecular target: T3, human OATP1B3 (SLCO1B3) (Homo sapiens, UniProt Q9NPD5); details: ≥10x [Iin max u]: atazanavir 50 μM, darunavir 15 μM, lopinavir 5 μM, ritonavir 0.3 μM; [3H]-estradiol 17β-D-glucuronide 0.02 μM
# T3 sequence (Q9NPD5 1-702): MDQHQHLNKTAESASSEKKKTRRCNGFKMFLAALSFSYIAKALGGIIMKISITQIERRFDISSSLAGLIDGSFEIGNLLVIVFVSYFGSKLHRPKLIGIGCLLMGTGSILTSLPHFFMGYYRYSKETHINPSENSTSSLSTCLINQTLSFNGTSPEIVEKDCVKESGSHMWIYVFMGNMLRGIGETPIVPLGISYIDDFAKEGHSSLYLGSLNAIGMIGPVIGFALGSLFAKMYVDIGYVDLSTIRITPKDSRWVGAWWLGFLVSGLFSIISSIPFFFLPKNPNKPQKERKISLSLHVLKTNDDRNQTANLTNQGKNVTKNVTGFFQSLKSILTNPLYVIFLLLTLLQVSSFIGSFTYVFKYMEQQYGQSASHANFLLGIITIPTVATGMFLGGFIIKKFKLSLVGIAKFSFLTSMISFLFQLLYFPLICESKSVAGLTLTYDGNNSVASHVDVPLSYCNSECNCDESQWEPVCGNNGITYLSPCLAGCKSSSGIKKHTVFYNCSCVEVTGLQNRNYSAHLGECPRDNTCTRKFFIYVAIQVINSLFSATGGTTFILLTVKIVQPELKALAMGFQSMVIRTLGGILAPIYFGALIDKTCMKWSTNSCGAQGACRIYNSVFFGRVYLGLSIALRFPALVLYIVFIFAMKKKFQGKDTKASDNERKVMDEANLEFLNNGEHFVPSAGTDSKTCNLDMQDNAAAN
# [6] = human, in vivo
IC50 at 2 min [1] [nM],[Ig] maximal enterocyte concentration ([3]; (FaFg × ka × dose)/Qent) [µM],[Iin max u] unbound maximum hepatic inlet concentration [3] [µM],[Iin max] maximum hepatic inlet concentration [3] [µM],"Inhibition of OATP1B3-mediated probe substrate transport, single concentration screen [5]",Structure (SMILES),Published IC50/Ki (BCRP) [2],"Predicted AUCR, inhibition of BCRP and OATP1B1 alone (earlier model) [4]",[Ig] maximal enterocyte concentration [6],[Iin max u] unbound maximum hepatic inlet concentration [6] [µM],[Iin max] maximum hepatic inlet concentration [6]
928,142,4.90,35.0,produced inhibition,COC(=O)N[C@H](C(=O)N[C@@H](Cc1ccccc1)[C@@H](O)CN(Cc1ccc(-c2ccccn2)cc1)NC(=O)[C@@H](NC(=O)OC)C(C)(C)C)C(C)(C)C [atazanavir],69.1 (pheophorbide A) μM,2.13,,,
,,,,,Cc1cccc(C)c1OCC(=O)N[C@@H](Cc1ccccc1)[C@@H](O)C[C@H](Cc1ccccc1)NC(=O)[C@H](C(C)C)N1CCCNC1=O [lopinavir],,,42.4 ^d μM,0.450,22.5 ^d μM
